Assay results reported in patent EP4632836A1, “BATTERIES FOR OPERATION ACROSS TEMPERATURES AND RELATED METHODS” (Massachusetts Institute of Technology, priority 2024, dated 2025).

Experiment: Electrode soaking test in electrolyte (coloration of electrolyte)
Assay type: physicochemical
Details: electrodes with 90 wt.% of TAQ soaked in 2 mL of 1 M LiTFSI in DOL/DME (1/1 vol.%), -20 °C to 70 °C, 24 hours; no coloration of electrolyte
Description: The high-temperature performance of organic cathode materials for LIBs depends on the solubility of the active materials in organic electrolytes as dissolution leads to rapid capacity decay, dramatically reducing the cycling lifetime. On the other hand, the performance of LIBs at low temperatures is heavily dependent on the charge transport and transfer resistance, as well as the solid-state Li^+ diffusion resistance of the electrode. The solubility of TAQ electrodes and deeply lithiated TAQ (Lix-TAQ, 3<x<4) electrodes in a commercially available electrolyte (1 M LiTFSI in DOL/DME (1/1 vol.%)) under various temperatures was evaluated (FIGS. 24C and 31). […] The electrodes were soaked in 2 mL of electrolyte, and kept under various temperatures ranging from -20 °C to 70 °C for 24 hours. […] This insolubility stems from strong intermolecular hydrogen bonding between TAQ molecules and interlayer π- π stacking, which both persist even upon deep lithiation.

solubility of electrodes: complete insolubility
SMILES: Nc1c(N)c(=O)c2[nH]c3c(=O)c(N)c(N)c(=O)c3[nH]c2c1=O [TAQ, bis-tetraaminobenzoquinone]
